Assay type in all cases: cell-based
One assay concerns the target T1, human TLR7 (Homo sapiens, UniProt Q9NYK1).
T1 construct: host or cells: HEK-Blue cells (HEK293-derived reporter line)
T1 sequence (Q9NYK1 27-1049): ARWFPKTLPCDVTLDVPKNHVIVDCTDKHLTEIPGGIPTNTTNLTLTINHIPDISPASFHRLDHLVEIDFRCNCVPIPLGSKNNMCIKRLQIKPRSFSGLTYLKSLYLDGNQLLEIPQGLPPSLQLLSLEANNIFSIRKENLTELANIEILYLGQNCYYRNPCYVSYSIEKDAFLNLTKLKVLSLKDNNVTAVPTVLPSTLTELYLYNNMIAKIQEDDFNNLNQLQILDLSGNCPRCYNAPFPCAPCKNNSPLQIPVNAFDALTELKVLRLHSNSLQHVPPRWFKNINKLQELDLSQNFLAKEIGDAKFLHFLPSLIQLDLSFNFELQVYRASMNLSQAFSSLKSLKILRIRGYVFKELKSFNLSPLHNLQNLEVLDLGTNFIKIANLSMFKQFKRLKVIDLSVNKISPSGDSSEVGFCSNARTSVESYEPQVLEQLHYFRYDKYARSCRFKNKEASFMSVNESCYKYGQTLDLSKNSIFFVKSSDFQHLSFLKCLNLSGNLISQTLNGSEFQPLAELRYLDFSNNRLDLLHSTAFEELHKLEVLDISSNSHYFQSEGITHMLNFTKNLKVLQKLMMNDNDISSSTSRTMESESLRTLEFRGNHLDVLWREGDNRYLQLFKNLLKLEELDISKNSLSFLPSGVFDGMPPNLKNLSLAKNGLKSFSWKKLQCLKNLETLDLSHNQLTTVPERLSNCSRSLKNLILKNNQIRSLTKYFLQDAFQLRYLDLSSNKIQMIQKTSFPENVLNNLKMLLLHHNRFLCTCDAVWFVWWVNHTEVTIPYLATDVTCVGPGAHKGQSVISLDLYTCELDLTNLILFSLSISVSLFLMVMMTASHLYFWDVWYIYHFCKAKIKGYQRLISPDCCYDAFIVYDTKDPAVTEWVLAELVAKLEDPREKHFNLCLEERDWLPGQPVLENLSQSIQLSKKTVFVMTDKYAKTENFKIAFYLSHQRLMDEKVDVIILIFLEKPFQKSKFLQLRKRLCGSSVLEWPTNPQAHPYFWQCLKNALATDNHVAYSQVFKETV
The assay is described as follows: TLR7 inhibition reporter assay (HEK-Blue cells, SEAP reporter, gardiquimod stimulation). The conditions noted are these: HEK-Blue cells overexpressing human TLR7, SEAP reporter, gardiquimod 7.5 μM. The method in brief: (§1)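 Percent inhibition of agonist-induced SEAP secretion in HEK-Blue cells after 22 h at 37 °C. Stimuli: 7.5 μM gardiquimod, 15.9 μM R848, 5 nM ODN2006 for TLR7, TLR8 and TLR9, added after 30 min compound exposure over a 0.05 nM–50 μM range.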
On the technique in general: A reporter such as luciferase makes a cellular process visible.

For another assay, the target named is T2, human TLR9 (Homo sapiens, UniProt Q9NR96).
T2 construct: host or cells: HEK-Blue cells (HEK293-derived reporter line)
T2 sequence (Q9NR96 26-1032): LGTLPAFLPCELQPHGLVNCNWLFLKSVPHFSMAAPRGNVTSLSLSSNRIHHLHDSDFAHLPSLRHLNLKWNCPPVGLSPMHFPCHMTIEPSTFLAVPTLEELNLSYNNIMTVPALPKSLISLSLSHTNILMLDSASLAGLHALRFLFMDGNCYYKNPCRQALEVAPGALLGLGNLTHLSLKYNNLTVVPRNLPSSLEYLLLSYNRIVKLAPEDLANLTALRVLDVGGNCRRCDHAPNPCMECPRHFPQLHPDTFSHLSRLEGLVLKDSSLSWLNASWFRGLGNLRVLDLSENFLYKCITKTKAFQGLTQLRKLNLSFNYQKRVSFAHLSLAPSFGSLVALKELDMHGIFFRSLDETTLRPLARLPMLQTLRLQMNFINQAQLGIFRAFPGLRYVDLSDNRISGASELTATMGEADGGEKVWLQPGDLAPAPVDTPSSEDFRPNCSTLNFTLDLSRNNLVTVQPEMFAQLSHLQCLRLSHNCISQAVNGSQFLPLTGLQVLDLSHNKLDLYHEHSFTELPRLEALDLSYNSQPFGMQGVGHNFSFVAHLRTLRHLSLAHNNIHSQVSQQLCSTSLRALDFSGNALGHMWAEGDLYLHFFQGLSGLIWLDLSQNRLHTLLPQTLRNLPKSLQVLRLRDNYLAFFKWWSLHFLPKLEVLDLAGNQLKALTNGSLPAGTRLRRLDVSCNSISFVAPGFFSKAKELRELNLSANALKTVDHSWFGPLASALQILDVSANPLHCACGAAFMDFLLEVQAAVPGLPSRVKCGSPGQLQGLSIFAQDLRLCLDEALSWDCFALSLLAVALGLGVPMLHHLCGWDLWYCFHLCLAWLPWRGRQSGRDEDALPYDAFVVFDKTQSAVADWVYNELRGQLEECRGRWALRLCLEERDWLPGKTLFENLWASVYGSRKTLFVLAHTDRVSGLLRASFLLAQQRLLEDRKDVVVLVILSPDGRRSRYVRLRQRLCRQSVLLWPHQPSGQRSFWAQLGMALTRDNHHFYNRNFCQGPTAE
The assay is described as follows: TLR9 inhibition reporter assay (HEK-Blue cells, SEAP reporter, ODN2006 stimulation). Particulars: HEK-Blue cells overexpressing human TLR9, SEAP reporter, ODN2006 5 nM. The method in brief:
as §1

In another assay the target is T3, human TLR8 (Homo sapiens, UniProt Q9NR97).
T3 construct: host or cells: HEK-Blue cells (HEK293-derived reporter line)
T3 sequence (Q9NR97 27-1041): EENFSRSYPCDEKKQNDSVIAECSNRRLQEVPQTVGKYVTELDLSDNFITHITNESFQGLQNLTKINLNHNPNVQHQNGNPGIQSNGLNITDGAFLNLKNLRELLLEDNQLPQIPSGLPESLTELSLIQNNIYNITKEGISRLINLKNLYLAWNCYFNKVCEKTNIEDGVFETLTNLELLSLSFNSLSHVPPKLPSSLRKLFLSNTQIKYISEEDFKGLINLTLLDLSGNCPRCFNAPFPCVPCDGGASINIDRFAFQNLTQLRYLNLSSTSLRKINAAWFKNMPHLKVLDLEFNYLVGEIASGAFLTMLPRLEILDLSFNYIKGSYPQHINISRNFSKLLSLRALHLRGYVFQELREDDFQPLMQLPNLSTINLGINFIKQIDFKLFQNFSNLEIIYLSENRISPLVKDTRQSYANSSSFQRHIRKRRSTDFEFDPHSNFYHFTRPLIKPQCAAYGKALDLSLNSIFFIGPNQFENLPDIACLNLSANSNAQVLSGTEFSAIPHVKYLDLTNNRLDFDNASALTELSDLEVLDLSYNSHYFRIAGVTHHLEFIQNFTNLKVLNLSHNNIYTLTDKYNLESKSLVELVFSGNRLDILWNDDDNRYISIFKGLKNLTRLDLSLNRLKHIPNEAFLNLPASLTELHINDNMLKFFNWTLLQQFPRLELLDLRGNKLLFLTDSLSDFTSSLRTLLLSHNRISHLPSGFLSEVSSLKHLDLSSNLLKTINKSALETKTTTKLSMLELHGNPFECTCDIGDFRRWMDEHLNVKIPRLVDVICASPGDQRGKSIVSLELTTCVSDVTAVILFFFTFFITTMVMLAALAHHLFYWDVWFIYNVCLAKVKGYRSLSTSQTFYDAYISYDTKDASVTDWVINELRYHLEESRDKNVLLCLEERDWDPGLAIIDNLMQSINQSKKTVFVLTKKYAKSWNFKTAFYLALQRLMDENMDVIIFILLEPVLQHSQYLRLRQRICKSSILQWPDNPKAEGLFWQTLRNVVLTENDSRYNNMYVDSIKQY
Briefly: TLR8 inhibition reporter assay (HEK-Blue cells, SEAP reporter, R848 stimulation). The conditions noted are these: HEK-Blue cells overexpressing human TLR8, SEAP reporter, R848 15.9 μM. The method in brief: as §1

With `Cc1cc2nnnn2cc1-c1[nH]c2ccc(C3CCN(CCS(C)(=O)=O)CC3)cc2c1C(C)C` [Example 790, 6-(3-isopropyl-5-(1-(2-(methylsulfonyl)ethyl)piperidin-4-yl)-1H-indol-2-yl)-7-methyltetrazolo[1,5-a]pyridine], the results for the IC50 against human TLR7, against human TLR9 and against human TLR8 were < 100 nM, 1000 to 50000 nM and < 100 nM, respectively.
For `Cc1cc2nc(-c3[nH]c4ccc(C5CCNCC5)cc4c3C(C)C)c(F)cn2n1` [Example 148, 6-fluoro-5-(3-isopropyl-5-(piperidin-4-yl)-1H-indol-2-yl)-2-methylpyrazolo[1,5-a]pyrimidine], the IC50 (in general, the point on the concentration scale where inhibition reaches its midpoint) was < 100 nM at human TLR7, 1000 to 50000 nM at human TLR9 and 100 to 1000 nM on human TLR8.
Taken in the same sequence, the figures for `CCc1c[nH]c2nccc(-c3[nH]c4ccc(C5CCNCC5)cc4c3C)c12` [Example 219, 4-(3-methyl-5-(piperidin-4-yl)-1H-indol-2-yl)-3-ethyl-1H-pyrrolo[2,3-b]pyridine] were 100 to 1000 nM, 100 to 1000 nM and 100 to 1000 nM.
Taken in the same sequence, the figures for `CNC(=O)CN1CCC(c2ccc3[nH]c(-c4cc(OC)n5ccnc5c4)c(C(C)C)c3c2)CC1` [Example 356, 2-(4-(3-isopropyl-2-(5-methoxyimidazo[1,2-a]pyridin-7-yl)-1H-indol-5-yl)piperidin-1-yl)-N-methylacetamide] were 100 to 1000 nM, 100 to 1000 nM and 100 to 1000 nM.
Taken in the same sequence, the figures for `Cc1cc(-c2[nH]c3ccc(C4CCN(C(=O)CN5CCC(F)(F)CC5)CC4)cc3c2C(C)C)cn2nnnc12` [Example 482, 2-(4,4-difluoropiperidin-1-yl)-1-(4-(3-isopropyl-2-(8-methyltetrazolo[1,5-a]pyridin-6-yl)-1H-indol-5-yl)piperidin-1-yl)ethan-1-one] were < 100 nM, > 50000 nM and 100 to 1000 nM.
For `CNC(=O)CN1CCC(c2ccc3[nH]c(-c4ccc5nccn5c4)c(C(C)C)c3c2)CC1` [Example 403, 2-(4-(2-(imidazo[1,2-a]pyridin-6-yl)-3-isopropyl-1H-indol-5-yl)piperidin-1-yl)-N-methylacetamide], the results for the IC50 on human TLR7, against human TLR9 and against human TLR8 were < 100 nM, 1000 to 50000 nM and < 100 nM, respectively.
In the case of `CNC(=O)CN1CCC(c2ccc3[nH]c(-c4ccnc5[nH]ncc45)c(CC(F)F)c3c2)CC1` [Example 387, 2-(4-(3-(2,2-difluoroethyl)-2-(1H-pyrazolo[3,4-b]pyridin-4-yl)-1H-indol-5-yl)piperidin-1-yl)-N-methylacetamide], the IC50 is 100 to 1000 nM against human TLR7, 1000 to 50000 nM against human TLR9 and < 100 nM on human TLR8.
Taken in the same sequence, the figures for `CC(C)c1c(-c2cnc3ncccn23)[nH]c2ccc(C3CCNCC3)cc12` [Example 64, 3-(3-isopropyl-5-(piperidin-4-yl)-1H-indol-2-yl)imidazo[1,2-a]pyrimidine] were < 100 nM, 100 to 1000 nM and < 100 nM.
Taken in the same sequence, the figures for `Cc1cc2nccn2cc1-c1[nH]c2ccc(C3CCN(CCCN(C)C)CC3)cc2c1C(C)C` [Example 856, 3-(4-(3-isopropyl-2-(7-methylimidazo[1,2-a]pyridin-6-yl)-1H-indol-5-yl)piperidin-1-yl)-N,N-dimethylpropan-1-amine] were < 100 nM, 100 to 1000 nM and < 100 nM.
The corresponding values for `CC(=O)N1CCC[C@H]1C(=O)N1CCC(c2ccc3[nH]c(-c4ccnc5[nH]ncc45)c(C(C)C)c3c2)CC1` [Example 566, (S)-1-(2-(4-(3-isopropyl-2-(1H-pyrazolo[3,4-b]pyridin-4-yl)-1H-indol-5-yl)piperidine-1-carbonyl)pyrrolidin-1-yl)ethan-1-one] are 100 to 1000 nM, > 50000 nM and 100 to 1000 nM.
Regarding `Cc1cc(-c2[nH]c3ccc(C4CCNCC4)cc3c2C(C)C)cc2nccnc12` [Example 88, 7-(3-isopropyl-5-(piperidin-4-yl)-1H-indol-2-yl)-5-methylquinoxaline], the IC50 at human TLR7 is < 100 nM; at human TLR9 it was 1000 to 50000 nM; at human TLR8, 100 to 1000 nM.
The corresponding values for `CCc1c(-c2ccnc3[nH]ccc23)[nH]c2cc(C)c(C3CCN(C4CCN(C(C)C)CC4)CC3)cc12` [Example 840, 4-(3-ethyl-5-(1′-isopropyl-[1,4′-bipiperidin]-4-yl)-6-methyl-1H-indol-2-yl)-1H-pyrrolo[2,3-b]pyridine] are 1000 to 50000 nM, 100 to 1000 nM and 1000 to 50000 nM.
The corresponding values for `CCc1c(-c2ccnc3[nH]ncc23)[nH]c2ccc(C3CCN(C(C)C)CC3)cc12` [Example 957, 4-(3-ethyl-5-(1-isopropylpiperidin-4-yl)-1H-indol-2-yl)-1H-pyrazolo[3,4-b]pyridine] are 100 to 1000 nM, 1000 to 50000 nM and < 100 nM.

Source of the values: patent US11739098B2 (BRISTOL-MYERS SQUIBB COMPANY, priority 2017, dated 2023).
